Consider 13 compounds from US20080255076A1, “Steroid-Derived Pharmaceutical Compositions” (JadoLabs GmbH, priority 2004, published 2008).

The test system of experiment [1] is Raft liposomes. The experiment can be described thus: Disrafter-Liposome Raftophile Assay (D-LRA). The settings on record: for % disrafting in the DLRA with perylene: indicator perylene 2 μM; for % disrafting in the DLRA with perylene / % disrafting in the DLRA with GS-96: test compound 100 μM final, negative = raft augmentation; for disrafting activity in the DLRA (in words): significance above 25% or below −25%; for % disrafting in the DLRA: indicator not stated; for % disrafting in the DLRA with GS-96: indicator GS-96 0.2 μM.

The subject of experiment [2] is HIV-1 strain NL4-3. The experiment can be described thus: HIV assay. Format: cell-based. The settings on record: compared to solvent; for inhibition at 30 µM: Human immunodeficiency virus 1, NL43, HeLa TZM cells, read-out: inhibition of HIV infection; for inhibition of HIV infection: 30 μM, HeLa TZM cells.
For experiment [3], the system named is Wild type SV40 viruses. The experiment can be described thus: SV40 infection assay. Format: cell-based, Simian Virus 40. The settings on record: HeLa cells.
Experiment [4] relates to vesicular stomatitis virus (VSV). Format: cell-based.
For experiment [5], the system named is PR8 virus. The experiment can be described thus: microbe, parasite or virus in culture. Format: cell-based, influenza virus.
Experiment [6] relates to Rat basophilic leukemia (RBL-2H3) cells. The experiment can be described thus: Degranulation assay (β-hexosaminidase release). The settings on record: 100 μM, compared to solvent vehicle. Format: cell-based. Here is the method: The assay measures release of β-hexosaminidase as a marker of release of various preformed pharmacological agents in response to clustering of the high affinity IgE receptor (FcεRI) by means of multivalent antigen-IgE complexes. Rat basophilic leukemia (RBL-2H3) cells, a commonly used model of mast cell degranulation, are sensitized with anti-DNP specific IgE and challenged with multivalent DNP-BSA. The release of β-hexosaminidase into the supernatant is measured by enzymatic conversion of the fluorogenic substrate 4-methylumbelliferyl-N-acetyl-[…] to N-acetyl-β-D-glucosamine and highly fluorescent methylumbelliferone and quantified by fluorescence detection in a Tecan Safire™ plate reader. • 2. Materials […]
Two to 24 hours before incubation with test compounds the medium was removed and cells were sensitized with 0.4 μg/ml anti-DNP IgE in fresh medium. […] Hexosaminidase activity in supernatants and lysates was measured by incubating 25 μl aliquots with 100 μl MUG substrate solution in a 96-well plate at 37° C. for 30 min. […] Fluorescence was measured in a Tecan Safire™ plate reader at 365 nm excitation and 440 nm emission settings.
Each compound is tested in duplicates in at least three independent experiments. β-hexosaminidase release is calculated after subtraction of unspecific release (release without addition of antigen) using the formula: […]

Experiment [7] concerns Influenza virus. Kind of experiment: Virus budding assay (influenza assay). Format: cell-based. The settings on record: MDCK cells; test compound 1 h; below 100% = inhibition.
[8] abbreviates: Betapolyomavirus macacae, M-HeLa, 30 μM, compared to solvent.
Where [9] appears, read: unidentified influenza virus, PR8, MDCK, read-out: inhibition of PR8 virus replication.

As to `C/C=C1/CCC2C3CCc4cc(OC)ccc4C3CC[C@]12C` (stereo partly drawn) [Compound 10dc, cis-Δ^17(20)-19-Norpregna-1,3,5(10),17(20)-tetraen-3-yl methyl ether], in experiment [1], the “% disrafting in the DLRA with perylene” value is −139% and the “disrafting activity in the DLRA (in words)” value (from here on “disrafting activity”) is recorded as “high negative or positive values”. Also, in experiment [2], the inhibition at 30 µM was 38%.

In the case of `CO[C@@H]1CC[C@@]2(C)[C@@H](CC[C@H]3[C@@H]4CCC[C@@]4(C)CC[C@@H]32)C1` [Compound 10ac, 3alpha-Methoxy-5alpha-androstane], in experiment [1], the “% disrafting in the DLRA with perylene” value was “about +68%” and the “disrafting activity” value is listed as “high negative or positive values”. For the same compound, the inhibition at 30 µM in experiment [3] (setting [8]) came out at 12.9%. Further, in experiment [4], the “inhibitory effect on viral infection in the VSV counterscreen (in words)” value (from here on “inhibitory effect on viral infection”) is reported as “no inhibitory effect on viral infection at all”.

As to `CCCCCCCCCCCC=C1CC[C@H]2[C@@H]3CCC4CC(=O)CC[C@]4(C)[C@H]3CC[C@]12C` (relative stereo) [Compound 10ak, cis-Δ^17(20)-Dodecylidene-3-androstanone], the “disrafting activity” value in experiment [1] was “high negative or positive values”. For the same compound, the “inhibition of HIV infection” value in experiment [2] is recorded as 23%.

As to `C[C@]12CC[C@H](O)C[C@@H]1CC[C@@H]1[C@@H]2CC[C@]2(C)C(=O)CC[C@@H]12` [epiandrosterone, reference compound], in experiment [1], the “% disrafting in the DLRA” value is 0% and the “disrafting activity” value is listed as “do not show significant disrafting activity”.

As for “cis-Δ^17(20)-Dodecylidene-3alpha-aminoandrostan [Compound 10al]”, the “inhibition of PR8 virus replication” value in experiment [5] (12.5 μM, MDCK cells) is 54%. In addition, in experiment [1], the “% disrafting in the DLRA with perylene” value was −216% and the “disrafting activity” value was “high negative or positive values”. Also, the “inhibition of release of β-hexosaminidase” value in experiment [6] is listed as 61%.

On to `CC[C@H]1CCC2C3CCC4C[C@H](N=[N+]=[N-])CC[C@]4(C)C3CC[C@@]21C` (stereo partly drawn) [Compound 10ag, 5alpha-Pregnan-3alpha-azide], for which, in experiment [1], the “% disrafting in the DLRA with GS-96” value is given as −187%, the “% disrafting in the DLRA with perylene” value is recorded as −71.8% and the “disrafting activity” value is “high negative or positive values”.

On to `C/C=C1/CCC2C3CCC4C[C@@H](O)CC[C@]4(C)C3CC[C@]12C` (stereo partly drawn) [Compound 10ad, cis-Δ^17(20)-5alpha-Pregnen-3beta-ol], for which the inhibition at 20 µM in experiment [5] (setting [9]) was determined as 59.6%. In addition, in experiment [1], the “% disrafting in the DLRA with GS-96” value is given as “about −66%”, the “% disrafting in the DLRA with perylene” value is “about −105%” and the “disrafting activity” value was “high negative or positive values”. The compound also displayed an inhibition at 30 µM in experiment [3] (setting [8]) of 15.2%. Moreover, the “virus budding, percentage with respect to an untreated control” value in experiment [7] is 61%. In experiment [4], the “inhibitory effect on viral infection” value is on record as “no inhibitory effect on viral infection at all”.

As to `C/C=C1/CCC2C3CCc4cc(O)ccc4C3CC[C@]12C` (stereo partly drawn) [Compound 10da, cis-Δ^17(20)-19-Norpregna-1,3,5(10),17(20)-tetraen-3-ol], in experiment [1], the “% disrafting in the DLRA with perylene” value was −729% and the “disrafting activity” value is “high negative or positive values”. The same compound displayed an inhibition at 15 µM in experiment [3] (Betapolyomavirus macacae, M-HeLa, 15 μM) of 29.6%. In experiment [4], the “inhibitory effect on viral infection” value is “no inhibitory effect on viral infection at all”. The inhibition at 30 µM in experiment [2] was 18%.

Regarding `C/C=C1/CCC2C3CCC4CC(=O)CC[C@]4(C)C3CC[C@]12C` (stereo partly drawn) [Compound 10ae, cis-Δ^17(20)-5alpha-Pregnen-3-one], the inhibition at 50 µM in experiment [5] (setting [9]) came out at 32.9%. In experiment [1], the “% disrafting in the DLRA with GS-96” value is approximately −20%, the “% disrafting in the DLRA with perylene” value was “about −43%” and the “disrafting activity” value is “high negative or positive values”. Further, in experiment [7], the “virus budding, percentage with respect to an untreated control” value is “about 140%”.

As to `C[C@]12CC[C@@H](O)C[C@@H]1CC[C@@H]1[C@@H]2CC[C@]2(C)C(=O)CC[C@@H]12` [Androsterone, reference compound], in experiment [1], the “% disrafting in the DLRA” value is recorded as 0% and the “disrafting activity” value is reported as “do not show significant disrafting activity”.

Consider `CC(C)CCC[C@@H](C)[C@H]1CC[C@H]2[C@@H]3CC=C4C[C@@H](O)CC[C@]4(C)[C@H]3CC[C@]12C` [cholesterol, reference compound], for which, in experiment [1], the “% disrafting in the DLRA” value is 0% and the “disrafting activity” value was “do not show significant disrafting activity”.

For `CC[C@H]1CC[C@H]2[C@@H]3CC[C@H]4C[C@@H](O)CC[C@]4(C)[C@H]3CC[C@]12C` [Compound 10af, 5alpha-Pregnan-3beta-ol], in experiment [5] (setting [9]), the inhibition at 50 µM is 27.9%. Also, in experiment [1], the “% disrafting in the DLRA with GS-96” value is −74.7%, the “% disrafting in the DLRA with perylene” value is recorded as −217% and the “disrafting activity” value is recorded as “high negative or positive values”. The compound also returned an inhibition at 30 µM in experiment [3] (setting [8]) of 18.9%. The “inhibitory effect on viral infection” value in experiment [4] is reported as “no inhibitory effect on viral infection at all”.

Regarding `C/C=C1/CC[C@H]2[C@@H]3CCc4cc(OC(C)=O)ccc4[C@H]3CC[C@]12C` (relative stereo) [Compound 10db, cis-Δ^17(20)-19-Norpregna-1,3,5(10),17(20)-tetraen-3-yl acetate], in experiment [1], the “% disrafting in the DLRA with perylene” value is on record as −536% and the “disrafting activity” value was “high negative or positive values”. Also, the “inhibition of SV40 infection” value in experiment [3] (30 μM, compared to solvent) was 52.2%. Moreover, the “inhibitory effect on viral infection” value in experiment [4] was “no inhibitory effect on viral infection at all”. Besides, in experiment [2], the “inhibition of HIV infection” value was found to be 27%.

As a reminder, the inhibition is the share of the control response that was lost under treatment.
